The test system of one experiment is epithelial cells. The experiment in a line: Effects of compounds on extracellular GSH transport (Table 3). The class given is cell-based. The conditions noted are these: Epithelial cell, read-out: % Increase Over Control (extracellular GSH).
The subject of experiment [1] is HL-60 cells. The experiment in a line: Intracellular GSH levels by HPLC-EC in HL-60 cells. The following applies: 24 hours treatment; for Int. GSH % con.: HL-60, 25 μM. The class given is cell-based, human. As for the experimental part:
(§1) Cell lines and culture conditions. Human lung epithelial cancer (A549), human leukemia HL-60 and human prostate (PC-3) tumor cells were purchased from ATCC (Manassas, Va.). A549 and PC-3 cells were grown in Ham's F12 medium (F12) and Kaighn's modification of Ham's F12 medium (F12K) with 2 mM L-glutamine (ATCC), respectively, supplemented with 10% fetal bovine serum (FBS) and 5% pen/strep (10,000 unit, Cellgro). HL-60 cells were grown in Iscove's modified Dulbecco's medium with 4 mM L-glutamine (ATCC) supplemented with 20% FBS and 5% pen/strep. Cell were grown in T-75 flask at 37° C. and 5% CO2 air atmosphere and in 24-well plates for GSH levels and LDH release measurements.
(§2) Intracellular levels of GSH. Intracellular GSH levels can be determined by HPLC-EC. Cultured cells from 24-well plates were washed once with 1 ml of PBS and then re-suspended in 0.5 ml of distilled water with 40 μM of digitonin (2 mM stock solution in DMSO) for 30 min at room temperature. Then, 50 μl of 10% meta-phosphoric acid were added (1% final concentration), the samples were sonicated for 2 min, centrifuged at 20,000 g for 10 min, and 0.2 ml of supernatant placed in vials for HPLC analysis. […] The flow rate was […]. The retention time for GSH in these conditions was 7.5 min. The HPLC instrument was from ESA, Inc. (Chelmsford, Mass.), equipped with an autosampler (model 540) and a Coul array detector (model 5600A). The potential applied was +0.75 V vs. H/Pd electrode, and the injection volume 5 μl.

For experiment [2], the system named is A549 cells. The experiment in a line: Intracellular GSH levels by HPLC-EC in A549 cells. The following applies: A549, 25 μM. The class given is cell-based, human. As for the experimental part: as §1, §2
The test system of experiment [3] is A549 cells. The experiment in a line: Cytotoxicity as LDH release in A549 cells. The class given is cell-based, human. As for the experimental part: as §1
(§3) Assessment of cytotoxicity. In one exemplary method, membrane integrity of A549, HL-60 and PC-3 cells was used as an index of drug-induced cytotoxicity, and was assessed by monitoring the release of cytosolic lactate dehydrogenase (LDH). LDH activity was measured in the culture medium and cell lysates (50 mM HEPES, Triton X-100 0.5%, pH 7) using a plate reader format as previously described (41). Briefly, 5 μl of cell culture supernatant and lysates were incubated with 0.24 mM NADH in a Tris/NaCl pH 7.2 buffer in 96-well plates for 5 min at 25° C. The reaction was started by the addition of 9.8 mM pyruvate and the consumption of NADH followed at 340 nm for 5 min at 30° C. Percent LDH release was calculated by the following: (supernatant LDH/supernatant LDH+lysate LDH)×100.
A general note: LDH leaks from cells whose membrane has failed.

In experiment [4] the test system is PC-3 cells. Briefly: Cytotoxicity as LDH release in PC-3 cells. The class given is cell-based, human. The conditions noted are these: PC-3, 50 μM, 48 hours treatment. As for the experimental part:
as §1, §3

Experiment [5] concerns HL-60 cells. Briefly: Cytotoxicity as LDH release in HL-60 cells. The class given is cell-based, human. The conditions noted are these: 48 hours treatment. The method, then:
as §1, §3

Experiment [6] deals with PC-3 cells. The experiment in a line: Intracellular GSH levels by HPLC-EC in PC-3 cells. The conditions noted are these: PC-3, 25 μM, 24 hours treatment. In kind it is cell-based, human. The method, then:
as §1, §2

The mark [7] stands for this setting: A549, 75 μM, 48 hours treatment.

Structures are written as SMILES.

Turning to `CCCOC(=O)c1cc(O)c(O)c(O)c1` [Propyl Gallate, 3,4,5-trihydroxy-benzoic acid propyl ester], the activation at 50 µM in the experiment on epithelial cells came out at 136%.
As for `Nc1ccc(C(=O)O)c(O)c1` [p-Aminosalicylic Acid, 4-amino-2-hydroxybenzoic acid, reference compound], the activation at 100 µM with epithelial cells amounted to 414%.
Still for that read-out and setting: next, `COc1ccccc1C(=O)O` [Methylsalicylic Acid]: 169%.
In the case of `O=C(O)c1cc(/N=N/c2ccc(S(=O)(=O)Nc3ccccn3)cc2)ccc1O` [Sulfasalazine, reference compound], the activation at 50 µM in the experiment on epithelial cells stood at 211%.
`C[C@]12CC[C@@H]3c4cc(O)c(O)cc4CC[C@H]3[C@@H]1CC[C@@H]2O` [2-HE, 2-hydroxyestradiol, reference compound]: the “Int. GSH % con.” value is 120 % con with HL-60 cells [1], below 5 % con with A549 cells [2] (24 hours treatment) and 228 % con with PC-3 cells [6]. Further, the “Intracellular GSH levels, % compared to control” value in the experiment with A549 cells [2] (2 h) came out at 69.0 ± 0.5%. In addition, the “LDH rel. % con.” value is 150 % con in the experiment with A549 cells [3] (setting [7]); 113 % con in the experiment with PC-3 cells [4]; 250 % con in the experiment with HL-60 cells [5] (HL-60, 25 μM).
With `O=C1CC(c2ccc(O)cc2)Oc2cc(O)cc(O)c21` (stereo not shown) [Naringenin, 4′,5,7-trihydroxyflavanone], in the experiment with HL-60 cells [1] (Homo sapiens, HL-60, 75 μM, read-out: Int. GSH % con.), the activity at 75 µM was found to be 73%. Besides, the activity at 25 µM was determined as 17% in the experiment with A549 cells [2] (Homo sapiens, 24 hours treatment, read-out: Int. GSH % con.) and 83% with PC-3 cells [6] (Homo sapiens, read-out: Int. GSH % con.). Besides, the LDH release, % of control at 75 µM in the experiment with A549 cells [3] (Homo sapiens, A549, 75 μM, 48 hours treatment, read-out: LDH rel. % con.) came to 130%. The LDH release, % of control at 50 µM in the experiment on PC-3 cells [4] (Homo sapiens, read-out: LDH rel. % con.) worked out at 107%; with HL-60 cells [5] (Homo sapiens, HL-60, 50 μM, read-out: LDH rel. % con.), 95%.
As to `O=C(/C=C/c1ccccc1)c1cc(O)ccc1O` [2′,5′-DHC, 2′ 5′ dihydroxychalcone], the “Int. GSH % con.” value was below 5 % con with HL-60 cells [1], below 5 % con in the experiment on A549 cells [2] (24 hours treatment) and 67 % con with PC-3 cells [6]. The “Intracellular GSH levels, % compared to control” value with A549 cells [2] (2 h) and in the experiment on A549 cells [2] (4 h) was below 5% in each case. Moreover, the “LDH rel. % con.” value with A549 cells [3] (setting [7]) was determined as 273 % con; in the experiment with PC-3 cells [4], 246 % con; in the experiment on HL-60 cells [5] (HL-60, 50 μM), 310 % con. The “effect on the toxicities of rotenone (50 μM), curcumin (50 μM) and 2-ME (50 μM)” value in the experiment on A549 cells [3] (A549 cells, 48 hours, compound 10 μM (FIG. 20D)) was “potentiated”.
With `COc1ccc2cc3[n+](cc2c1OC)CCc1cc2c(cc1-3)OCO2` [Berberine], in the experiment with epithelial cells, the activation at 100 µM was found to be 170%.
For `O=C(O)c1cc(S(=O)(=O)O)ccc1O` [5-Sulfosalicylic Acid], the activation at 50 µM with epithelial cells came out at 142%.

For the origin of these results see patent US7790762B2, “Compounds and methods for thiol-containing compound efflux and cancer treatment” (National Jewish Health, priority 2002, dated 2010).
